Here are results for 29 compounds from ChEMBL document CHEMBL1143395, “Cloning, expression, post-translational modifications and inhibition studies on the latest mammalian carbonic anhydrase isoform, CA XV” (J Med Chem, 2009).

pKi: −log10 of the molar value.

The first test concerns the target T1, Carbonic anhydrase 15 (Mus musculus, UniProt Q99N23).
T1 sequence (Q99N23 whole entry): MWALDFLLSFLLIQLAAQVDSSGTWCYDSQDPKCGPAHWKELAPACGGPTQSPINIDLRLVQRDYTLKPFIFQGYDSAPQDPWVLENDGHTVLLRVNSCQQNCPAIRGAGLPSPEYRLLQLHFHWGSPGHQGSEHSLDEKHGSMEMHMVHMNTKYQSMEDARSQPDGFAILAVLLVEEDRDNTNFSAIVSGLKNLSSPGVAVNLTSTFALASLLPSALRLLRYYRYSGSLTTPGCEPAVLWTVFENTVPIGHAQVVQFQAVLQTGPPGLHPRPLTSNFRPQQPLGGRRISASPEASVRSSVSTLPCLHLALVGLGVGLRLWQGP
Usually pKi stands for the Ki on a negative log10 scale, so that one unit is a factor of ten. A low value points to a large Ki. In the case of `NNc1ccccc1S(N)(=O)=O`, the pKi is 5.16. `Nc1nnc(S(N)(=O)=O)s1` had a pKi of 7.32. The compound `Nc1ccc(S(=O)(=O)NCc2ccc(S(N)(=O)=O)cc2)cc1` gave a pKi of 7.31. The same measure, in the same setting: next, `Nc1cc(Cl)c(S(N)(=O)=O)cc1S(N)(=O)=O`: 6.12. On the same count and under the same terms, as for `NS(=O)(=O)c1nnc(-c2ccccc2Cl)s1`, the figure is 7.22; as for `Nc1nccc(Nc2ccc(S(N)(=O)=O)cc2)n1`, 7.17; as for `NS(=O)(=O)c1nc2ccc(O)cc2s1`, 7.19. Consider `Nc1ccccc1S(N)(=O)=O`, for which the pKi is 5.06. The same measure, in the same setting: next, `Nc1ccc(S(N)(=O)=O)cc1Br`: 7.08; `Cn1nc(S(N)(=O)=O)sc1=N`: 7.31; `NS(=O)(=O)c1ccc(CCO)cc1`: 5.33. Regarding `Nc1ccc(S(N)(=O)=O)cc1F`, the negative-log Ki (pKi) is 7.10.

As to `NS(=O)(=O)c1ccc(CO)cc1`, the negative logarithm of the Ki (pKi) is 5.34. The same measure, in the same setting: next, `Nc1ccc(S(N)(=O)=O)cc1Cl`: 7.21; `Nc1ccc(S(=O)(=O)NCCc2ccc(S(N)(=O)=O)cc2)cc1`: 7.20; `NNc1ccc(S(N)(=O)=O)cc1`: 5.02. Compound `NS(=O)(=O)c1ccc(S(=O)(=O)Nc2cccc3c(Cl)c[nH]c23)cc1` showed a pKi of 7.14.

`NS(=O)(=O)c1nnc(NS(=O)(=O)c2ccccc2)s1` [BENZOLAMIDE]: the negative-log Ki (pKi) was 7.15.

The compound `CCN[C@H]1CN(CCCOC)S(=O)(=O)c2sc(S(N)(=O)=O)cc21` [BRINZOLAMIDE] showed a pKi of 7.21. Still for that read-out and setting: as for `NS(=O)(=O)c1ccc(C(=O)O)cc1` [CARZENIDE], the figure is 5.33.

Turning to `NS(=O)(=O)c1cc(Cl)c(Cl)c(S(N)(=O)=O)c1` [DICHLORPHENAMIDE], the pKi is 7.02. The same measure, in the same setting: next, `CCOc1ccc2nc(S(N)(=O)=O)sc2c1` [ETHOXZOLAMIDE]: 7.24; `NCc1ccc(S(N)(=O)=O)cc1` [MAFENIDE]: 6.01.

For the compound `CC(=O)/N=c1/sc(S(N)(=O)=O)nn1C` [METHAZOLAMIDE], the negative-log Ki (pKi) is 7.19.

For the compound `Cc1ccc(S(N)(=O)=O)cc1` [P-TOLUENESULFONAMIDE], the pKi is 5.10.

With `Nc1ccc(S(N)(=O)=O)cc1` [SULFANILAMIDE], the negative-log Ki (pKi) was 5.02. In turn, `CC1(C)O[C@@H]2[C@@H](CO[C@@]3(COS(N)(=O)=O)OC(C)(C)O[C@@H]23)O1` [TOPIRAMATE] gave a pKi of 7.11. Same read-out and setting: as for `NS(=O)(=O)Cc1noc2ccccc12` [ZONISAMIDE], the figure is 6.20.

In another test the target is Carbonic anhydrase 6 (Homo sapiens, UniProt P23280).
Carbonic anhydrase 6, sequence (P23280 whole entry): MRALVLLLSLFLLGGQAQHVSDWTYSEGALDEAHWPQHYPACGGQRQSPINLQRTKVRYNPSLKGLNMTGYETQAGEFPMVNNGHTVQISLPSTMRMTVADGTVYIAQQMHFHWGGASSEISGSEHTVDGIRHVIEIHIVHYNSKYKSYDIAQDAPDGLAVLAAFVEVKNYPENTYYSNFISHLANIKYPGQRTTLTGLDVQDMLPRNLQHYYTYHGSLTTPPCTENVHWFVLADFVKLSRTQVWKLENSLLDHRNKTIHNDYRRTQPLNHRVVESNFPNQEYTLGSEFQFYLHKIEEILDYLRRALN
In turn, `Cc1ccc(-c2cc(C(F)(F)F)nn2-c2ccc(S(N)(=O)=O)cc2)cc1` [CELECOXIB] showed a negative logarithm of the Ki (pKi) of 7.03.
